In ChEMBL document CHEMBL1201862, “PubChem BioAssay data set” (2004):
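1) Cells in 96-well plates. 2) Compound, 48 h, 5 concentrations. 3) Linear interpolation between surrounding doses. 4) Unreached endpoint = highest concentration. GI50 marks 50% less growth.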 Calls of active or inactive are those of the source. Cut-off read from the data, not from the text of the source: active = GI50 up to about 1.1 µM and inactive = higher.

Experiments:
Experiment in all cases: NCI anticancer screen, dose series, 48 h
[1] = tested on: A498
[2] = tested on: A549
[3] = tested on: BT-549
[4] = tested on: CCRF-CEM
[5] = tested on: HCT-15
[6] = tested on: K562
[7] = tested on: MCF7
[8] = tested on: MDA-N
[9] = tested on: MOLT-4
[10] = tested on: Malme-3M
[11] = tested on: NCI-H460
[12] = tested on: NCI-H522
[13] = tested on: NCI/ADR-RES
[14] = tested on: OVCAR-8
[15] = tested on: SK-MEL-2
[16] = tested on: SK-OV-3
[17] = tested on: SN12C
[18] = tested on: T47D
[19] = tested on: TK-10
[20] = tested on: DMS-273

With `COC(=O)c1c(C#N)c(N)nc2c1CCC2` the GI50 [1] was > 100 µM (inactive), the GI50 [2] was > 100 µM (inactive) and the GI50 [3] was > 100 µM (inactive). The GI50 [4] was 99.8 µM (inactive), the GI50 [5] was greater than 100 µM and the GI50 [6] was > 100 µM (inactive). For the same compound, the GI50 [7] was > 100 µM (inactive), the GI50 [8] was > 100 µM (inactive) and the GI50 [9] was > 100 µM (inactive). For the same compound, the GI50 [10] was > 100 µM (inactive), the GI50 [11] was > 100 µM (inactive) and the GI50 [12] was > 100 µM (inactive). For the same compound, the GI50 [13] was > 100 µM (inactive), the GI50 [14] was > 100 µM (inactive) and the GI50 [15] was > 100 µM (inactive). The GI50 [16] was > 100 µM (inactive), the GI50 [17] was > 100 µM (inactive) and the GI50 [18] was 75.5 µM (inactive). For the same compound, the GI50 [19] was > 100 µM (inactive).
In the case of `O=C(O)c1ccc(CNCc2ccccc2)cc1`, the GI50 [1] is reported as > 100 µM (inactive), the GI50 [2] is reported as > 100 µM (inactive) and the GI50 [3] is reported as > 100 µM (inactive). The GI50 [4] was > 100 µM (inactive), the GI50 [5] was greater than 100 µM and the GI50 [6] was > 100 µM (inactive). The GI50 [7] was > 100 µM (inactive), the GI50 [8] was > 100 µM (inactive) and the GI50 [9] was > 100 µM (inactive). The GI50 [10] was > 100 µM (inactive), the GI50 [11] was > 100 µM (inactive) and the GI50 [12] was > 100 µM (inactive). The GI50 [13] was > 100 µM (inactive), the GI50 [14] was > 100 µM (inactive) and the GI50 [15] was > 100 µM (inactive). For the same compound, the GI50 [16] was > 100 µM (inactive), the GI50 [17] was > 100 µM (inactive) and the GI50 [18] was > 100 µM (inactive). For the same compound, the GI50 [19] was > 100 µM (inactive).
With `C=CCC(OCCOCC)c1cc(OCCOCC)ccc1OC` (stereo unspecified) the GI50 [2] was > 100 µM (inactive), the GI50 [4] was > 100 µM (inactive) and the GI50 [20] was > 100 µM (inactive). The GI50 [5] was greater than 100 µM, the GI50 [6] was > 100 µM (inactive) and the GI50 [9] was > 100 µM (inactive). The GI50 [10] was > 100 µM (inactive), the GI50 [11] was > 100 µM (inactive) and the GI50 [12] was > 100 µM (inactive). The GI50 [14] was > 100 µM (inactive), the GI50 [15] was > 100 µM (inactive) and the GI50 [16] was > 100 µM (inactive). For the same compound, the GI50 [17] was > 100 µM (inactive) and the GI50 [19] was > 100 µM (inactive).
In the case of `C/N=C(N)/N=C(\N)Nc1cc2ccccc2c2ccccc12`, the GI50 [1] is reported as 11.2 µM (inactive), the GI50 [2] is reported as 14.2 µM (inactive) and the GI50 [3] is reported as 15.1 µM (inactive). The GI50 [4] was 7.74 µM (inactive), the GI50 [5] was 16.7 µM and the GI50 [6] was 19.1 µM (inactive). The GI50 [7] was 13.2 µM (inactive), the GI50 [8] was 13.9 µM (inactive) and the GI50 [9] was 10.4 µM (inactive). The GI50 [10] was 15 µM (inactive), the GI50 [11] was 11.1 µM (inactive) and the GI50 [12] was 13.1 µM (inactive). For the same compound, the GI50 [13] was 20.6 µM (inactive), the GI50 [14] was 16.8 µM (inactive) and the GI50 [15] was 18 µM (inactive). For the same compound, the GI50 [16] was 16.3 µM (inactive), the GI50 [17] was 12.5 µM (inactive) and the GI50 [18] was 14.8 µM (inactive). The GI50 [19] was 13 µM (inactive).
